Measured values as given in ChEMBL document CHEMBL5726472, “Oxazolidin-2-one-pyrimidine derivatives and the use thereof as phosphatidylinositol-3-kinase inhibitors” (2019).

Experiments:
[1] = AlphaScreen (Amplified Luminescent Proximity Homogeneous Assay, ALPHA, Perkin Elmer) is a non-radioactive bead-based proximity assay technology to study biomolecular interactions in a homogenous microtiter plate format. The brand name SureFire denotes AlphaScreen assays that are adapted to quantify the phosphorylation of endogenous cellular proteins in cell lysates, by using matched antibody pairs, which consist of an anti-phospho-kinase and an anti-kinase antibody. The assay allows characterization of kinase signaling in cells as well as measurement of kinase inhibitor effects. The AlphaScreen technology provides several advantages over standard assay techniques such as ELISA, as it avoids time-consuming washing procedures and reduces plate handling. Furthermore, it is miniaturizable at least to a 384-well format and provides sensitivity down to the femtomolar range, dependent on the affinity of the antibodies included in the individual AlphaScreen SureFire assay kit. High sensitivity is reached by an intrinsic amplification mechanism, which involves production of singlet oxygen molecules. SureFire assay kits are commercially available for specific targets and include pairs of validated antibodies (PerkinElmer). This report describes common procedures applied for AlphaScreen SureFire assays and respective semi-automated steps for routine kinase inhibitor profiling in cell-based assays.The Rat-1 cell lines stably overexpressing activated PI3K class I isoforms Rat-1 pBABEpuro Myr-HA-hp110 delta (Rat-1_PI3Kdelta) and Rat-1 pBABEpuro Myr-HA-hp110alpha (Rat-1_PI3Kalpha) and Rat-1 pBABEpuro Myr-HA-hp110 beta (Rat-1_PI3beta) were prepared as described (Maira S M, Stauffer F, Brueggen J, Furet P, Schnell C, Fritsch C, Brachmann S, Chène P, de Pover A, Schoemaker K, Fabbro D, Gabriel D, Simonen M, Murphy L, Finan P, Sellers W, Garcia-Echeverria C (2008), Mol Cancer Ther. 7:1851-63 and Maira S M, Pecchi S, Brueggen J, Huh K, Schnell C, Fritsch C, Nagel T, Wiesmann M, Brachmann S, Dorsch M, Chène P, Schoemaker K, De Pover A, Menezes D, Fabbro D, Sellers W, Garcia-Echeverria C, Voliva CF (2011), Mol. Cancer Ther., accepted). All cell lines were cultivated in complete growth medium (DMEM high glucose, 10% (v/v) fetal bovine serum, 1% (v/v) MEM NEAA, 10 mM HEPES, 2 mM L-glutamine, puromycin (10 μg/mL for Rat-1_PI3Kdelta and Rat-1_PI3Kalpha, 4 ug/mL for Rat-1_PI3beta), 1% (v/v) Pen/Strep) to 90% confluency at 37° C./5% CO2/90% humidity in a humidified CO2 incubator and were split twice a week.The following materials were used for p-AKT(5473) detection in Rat-1 cell lysates: Dulbecco's modified Eagle's medium (DMEM) high glucose (Gibco Invitrogen, Basel, Switzerland, Cat. No. 41965), Heat Inactivated Fetal Bovine Serum, Qualified (HI FBS; Gibco Invitrogen, Basel, Switzerland, Lot. […]
[2] = AlphaScreen (Amplified Luminescent Proximity Homogeneous Assay, ALPHA, Perkin Elmer) is a non-radioactive bead-based proximity assay technology to study biomolecular interactions in a homogenous microtiter plate format. The brand name SureFire denotes AlphaScreen assays that are adapted to quantify the phosphorylation of endogenous cellular proteins in cell lysates, by using matched antibody pairs, which consist of an anti-phospho-kinase and an anti-kinase antibody. The assay allows characterization of kinase signaling in cells as well as measurement of kinase inhibitor effects. The AlphaScreen technology provides several advantages over standard assay techniques such as ELISA, as it avoids time-consuming washing procedures and reduces plate handling. Furthermore, it is miniaturizable at least to a 384-well format and provides sensitivity down to the femtomolar range, dependent on the affinity of the antibodies included in the individual AlphaScreen SureFire assay kit. High sensitivity is reached by an intrinsic amplification mechanism, which involves production of singlet oxygen molecules. SureFire assay kits are commercially available for specific targets and include pairs of validated antibodies (PerkinElmer). This report describes common procedures applied for AlphaScreen SureFire assays and respective semi-automated steps for routine kinase inhibitor profiling in cell-based assays.The Rat-1 cell lines stably overexpressing activated PI3K class I isoforms Rat-1 pBABEpuro Myr-HA-hp110 delta (Rat-1_PI3Kdelta) and Rat-1 pBABEpuro Myr-HA-hp110alpha (Rat-1_PI3Kalpha) and Rat-1 pBABEpuro Myr-HA-hp110 beta (Rat-1_PI3beta) were prepared as described (Maira S M, Stauffer F, Brueggen J, Furet P, Schnell C, Fritsch C, Brachmann S, Chène P, de Pover A, Schoemaker K, Fabbro D, Gabriel D, Simonen M, Murphy L, Finan P, Sellers W, Garcia-Echeverria C (2008), Mol Cancer Ther. 7:1851-63 and Maira S M, Pecchi S, Brueggen J, Huh K, Schnell C, Fritsch C, Nagel T, Wiesmann M, Brachmann S, Dorsch M, Chène P, Schoemaker K, De Pover A, Menezes D, Fabbro D, Sellers W, Garcia-Echeverria C, Voliva CF (2011), Mol. Cancer Ther., accepted). All cell lines were cultivated in complete growth medium (DMEM high glucose, 10% (v/v) fetal bovine serum, 1% (v/v) MEM NEAA, 10 mM HEPES, 2 mM L-glutamine, puromycin (10 μg/mL for Rat-1_PI3Kdelta and Rat-1_PI3Kalpha, 4 ug/mL for Rat-1_PI3beta), 1% (v/v) Pen/Strep) to 90% confluency at 37° C./5% CO2/90% humidity in a humidified CO2 incubator and were split twice a week.The following materials were used for p-AKT(5473) detection in Rat-1 cell lysates: Dulbecco's modified Eagle's medium (DMEM) high glucose (Gibco Invitrogen, Basel, Switzerland, Cat. No. 41965), Heat Inactivated Fetal Bovine Serum, Qualified (HI FBS; Gibco Invitrogen, Basel, Switzerland, Lot. No. 16140), MEM non essential amino acids (NEAA; Gibco Invitrogen, Basel, Switzerland, Cat. No. 11140), HEPES (Gibco Invitrogen, Basel, Switzerland, Cat. No. 15630), Penicillin/Streptomycin (Pen/Strep, 100x; Gibco Invitrogen, Basel, Switzerland, Cat. No. 15140-122), L-Glutamine (Gibco Invitrogen, Basel, Switzerland, Cat. No. 25030), Puromycin (Sigma Aldrich, Buchs, Switzerland, Cat. No. P9620), DMSO (MERCK, Dietikon, Switzerland, Cat. No. 8.02912.2500), H2O, MilliQ-H2O unless otherwise stated (MILLIPORE QGARDOOR1, Millipore, Zug, Switzerland), Bovine serum albumine (BSA; Sigma Aldrich, Buchs, Switzerland Cat. No. A8412), SureFire p-Akt ½ (Ser473) Assay Kit (PerkinElmer, Schwerzenbach, Switzerland, Cat. No. TGRAS50K).The p-Akt(5473) SureFire assay measures the phosphorylation of endogenous cellular Akt ½ at Ser473 in cell lysates. Using Rat-1 cells stably expressing myr-HA-tagged versions of the human PI3Kdelta, PI3Kalpha, or PI3Kbeta p110 catalytic subunit isoforms, the assay was developed as a two-plate protocol in a 384-well format. For compound testing, the cells were seeded at a density of 4000 (Rat-1_PI3Kdelta), 7500 (Rat-1_PI3Kalpha).

SMILES | IC50 [1] | IC50 [2]
Nc1ncc(-c2cc(N3C(=O)O[C@@H](c4ccc(OCCO)cc4)[C@@H]3CO)nc(N3CCOCC3)n2)c(C(F)(F)F)n1 | < 3 nM | < 3 nM
Nc1ncc(-c2cc(N3CCOCC3)nc(N3CCOCC3)n2)c(C(F)(F)F)n1 | 139 nM | 156 nM
Nc1ncc(-c2cc(N3CCN(c4ccccc4)C3=O)nc(N3CCOCC3)n2)c(C(F)(F)F)n1 | 1470 nM | 1580 nM
Nc1ncc(-c2cc(N3CCC(=O)CC3)nc(N3CCOCC3)n2)c(C(F)(F)F)n1 | 6540 nM | 5310 nM
Nc1ncc(-c2cc(N3CCCCC3=O)nc(N3CCOCC3)n2)c(C(F)(F)F)n1 | 1040 nM | 1540 nM
Nc1ncc(-c2cc(N3CCOC(c4ccccc4)C3)nc(N3CCOCC3)n2)c(C(F)(F)F)n1 (stereo unspecified) | – | > 10000 nM
